{"source": "paper PMC5218480", "about": "(PLoS ONE, 2017)", "system": "MV-4-11 cells", "assay": "Gene expression microarray analysis (Affymetrix PrimeView) and GSEA", "type": "cell-based, human", "parameters": "RFU PODN (11730768_x_at) / Fold change /veh PODN (11730768_x_at) / RFU LINC00158 (11744669_a_at) / Fold change /veh LINC00158 (11744669_a_at) / RFU DUSP10 (11751237_a_at) / Fold change /veh DUSP10 (11751237_a_at) / RFU ID3 (11757404_x_at) / Fold change /veh ID3 (11757404_x_at) / RFU PLEKHG5 (11737974_s_at) / Fold change /veh PLEKHG5 (11737974_s_at) / RFU LRRC4B (11730491_at) / Fold change /veh LRRC4B (11730491_at) / RFU GIMAP4 (11747438_a_at) / Fold change /veh GIMAP4 (11747438_a_at) / RFU KRT8 (11758183_x_at) / Fold change /veh KRT8 (11758183_x_at) / RFU CNN1 (11734310_a_at) / Fold change /veh CNN1 (11734310_a_at) / RFU VPS37D (11726825_at) / Fold change /veh VPS37D (11726825_at) / RFU C10orf10 (11716522_x_at) / Fold change /veh C10orf10 (11716522_x_at) / RFU KIR2DL2 /// KIR2DL4 /// KIR2DL5A /// KIR2DL5B /// KIR2DS1 /// KIR2DS2 /// KIR2DS3 /// KIR2DS4 /// KIR3DL3 /// KIR3DL3 /// KIR3DS1 (11738374_at) / Fold change /veh KIR2DL2 /// KIR2DL4 /// KIR2DL5A /// KIR2DL5B /// KIR2DS1 /// KIR2DS2 /// KIR2DS3 /// KIR2DS4 /// KIR3DL3 /// KIR3DL3 /// KIR3DS1 (11738374_at) / RFU C1QL1 (11718748_at) / Fold change /veh C1QL1 (11718748_at) / RFU TMPRSS4 (11747572_a_at) / Fold change /veh TMPRSS4 (11747572_a_at) / RFU HAMP (11756126_x_at) / Fold change /veh HAMP (11756126_x_at) / RFU RNFT2 (11725882_a_at) / Fold change /veh RNFT2 (11725882_a_at) / RFU NR4A2 (11747474_a_at) / Fold change /veh NR4A2 (11747474_a_at) / RFU ABCC12 (11746883_a_at) / Fold change /veh ABCC12 (11746883_a_at) / RFU TMEM136 (11760407_x_at) / Fold change /veh TMEM136 (11760407_x_at) / RFU CLDN22 /// WWC2 (11732394_at) / Fold change /veh CLDN22 /// WWC2 (11732394_at) / RFU HLA-DPB1 (11760878_x_at) / Fold change /veh HLA-DPB1 (11760878_x_at) / RFU SPINT1 (11716480_a_at) / Fold change /veh SPINT1 (11716480_a_at) / RFU GAP43 (11754022_s_at) / Fold change /veh GAP43 (11754022_s_at) / RFU A4GNT (11735810_at) / Fold change /veh A4GNT (11735810_at) / RFU PRB3 (11715151_x_at) / Fold change /veh PRB3 (11715151_x_at) / RFU TUBB4B (11761932_at) / Fold change /veh TUBB4B (11761932_at) / RFU CAPN14 (11732068_a_at) / Fold change /veh CAPN14 (11732068_a_at) / RFU TMCC2 (11721928_a_at) / Fold change /veh TMCC2 (11721928_a_at) / RFU IRGQ (11745062_a_at) / Fold change /veh IRGQ (11745062_a_at) / RFU FAM174B (11720279_a_at) / Fold change /veh FAM174B (11720279_a_at) / RFU TMPRSS4 (11748680_a_at) / Fold change /veh TMPRSS4 (11748680_a_at) / RFU FAM212B (11763350_a_at) / Fold change /veh FAM212B (11763350_a_at) / RFU PLEKHG5 (11743358_a_at) / Fold change /veh PLEKHG5 (11743358_a_at) / RFU ZSCAN30 (11745921_a_at) / Fold change /veh ZSCAN30 (11745921_a_at) / RFU CMKLR1 (11741424_a_at) / Fold change /veh CMKLR1 (11741424_a_at) / RFU LOC101060620 /// MAPK8IP1 (11723275_at) / Fold change /veh LOC101060620 /// MAPK8IP1 (11723275_at) / RFU SPTSSB (11747773_x_at) / Fold change /veh SPTSSB (11747773_x_at) / RFU PRSS12 (11739890_at) / Fold change /veh PRSS12 (11739890_at) / RFU BIN1 (11741810_x_at) / Fold change /veh BIN1 (11741810_x_at) / RFU WNT11 (11732464_a_at) / Fold change /veh WNT11 (11732464_a_at) / RFU C10orf10 (11716521_a_at) / Fold change /veh C10orf10 (11716521_a_at) / RFU C5orf56 (11738089_at) / Fold change /veh C5orf56 (11738089_at) / RFU CYB561 (11721691_x_at) / Fold change /veh CYB561 (11721691_x_at) / RFU ANKRD19P (11752326_a_at) / Fold change /veh ANKRD19P (11752326_a_at) / RFU OR2T12 /// OR2T33 /// OR2T8 (11738714_s_at) / Fold change /veh OR2T12 /// OR2T33 /// OR2T8 (11738714_s_at) / RFU VCAN (11748164_a_at) / Fold change /veh VCAN (11748164_a_at) / RFU JSRP1 (11732532_at) / Fold change /veh JSRP1 (11732532_at) / RFU KRTAP10-11 (11738290_x_at) / Fold change /veh KRTAP10-11 (11738290_x_at) / RFU MYO3A (11730013_a_at) / Fold change /veh MYO3A (11730013_a_at) / RFU EBF3 (11725865_a_at) / Fold change /veh EBF3 (11725865_a_at) / RFU CAMK2N1 (11719241_x_at) / Fold change /veh CAMK2N1 (11719241_x_at) / RFU C5orf56 (11738088_a_at) / Fold change /veh C5orf56 (11738088_a_at) / RFU OLFML3 (11715873_a_at) / Fold change /veh OLFML3 (11715873_a_at) / RFU LOC100653217 /// NTM (11731650_a_at) / Fold change /veh LOC100653217 /// NTM (11731650_a_at) / RFU MAPK11 (11762145_a_at) / Fold change /veh MAPK11 (11762145_a_at) / RFU FIZ1 (11724087_x_at) / Fold change /veh FIZ1 (11724087_x_at) / RFU OASL (11726364_x_at) / Fold change /veh OASL (11726364_x_at) / RFU SOX15 (11748057_x_at) / Fold change /veh SOX15 (11748057_x_at) / RFU CD79A (11719716_a_at) / Fold change /veh CD79A (11719716_a_at) / RFU HIST1H1D (11736915_at) / Fold change /veh HIST1H1D (11736915_at) / RFU CASKIN2 (11723855_a_at) / Fold change /veh CASKIN2 (11723855_a_at) / RFU LOC730098 (11760151_x_at) / Fold change /veh LOC730098 (11760151_x_at) / RFU OR4N2 (11742367_at) / Fold change /veh OR4N2 (11742367_at) / RFU PRRT2 (11749266_a_at) / Fold change /veh PRRT2 (11749266_a_at) / RFU SNX32 (11753110_a_at) / Fold change /veh SNX32 (11753110_a_at) / RFU CDHR5 (11726645_a_at) / Fold change /veh CDHR5 (11726645_a_at) / RFU RCAN1 (11760418_a_at) / Fold change /veh RCAN1 (11760418_a_at) / RFU FAM167A (11723789_a_at) / Fold change /veh FAM167A (11723789_a_at) / RFU FAM26E (11764081_at) / Fold change /veh FAM26E (11764081_at) / RFU ISYNA1 (11749810_s_at) / Fold change /veh ISYNA1 (11749810_s_at) / RFU ACY1 (11761880_at) / Fold change /veh ACY1 (11761880_at) / RFU 11764098_at / Fold change /veh 11764098_at / RFU SAMD14 (11745864_x_at) / Fold change /veh SAMD14 (11745864_x_at) / RFU NPB (11741838_a_at) / Fold change /veh NPB (11741838_a_at) / RFU TMPRSS6 (11731388_a_at) / Fold change /veh TMPRSS6 (11731388_a_at) / RFU KRTAP10-2 (11738614_at) / Fold change /veh KRTAP10-2 (11738614_at) / RFU ARHGAP8 /// PRR5-ARHGAP8 (11727945_x_at) / Fold change /veh ARHGAP8 /// PRR5-ARHGAP8 (11727945_x_at) / RFU KRTAP5-7 /// NADSYN1 (11734609_at) / Fold change /veh KRTAP5-7 /// NADSYN1 (11734609_at) / RFU RASL12 (11751679_a_at) / Fold change /veh RASL12 (11751679_a_at) / RFU CDKN2B (11736163_a_at) / Fold change /veh CDKN2B (11736163_a_at) / RFU PRF1 (11729649_at) / Fold change /veh PRF1 (11729649_at) / RFU, ZNF638 /// ZNF638-IT1 / Fold change vs veh, ZNF638 /// ZNF638-IT1 / RFU, PANK3 / Fold change vs veh, PANK3 / RFU, SH3YL1 / Fold change vs veh, SH3YL1 / RFU, ZEB2 / Fold change vs veh, ZEB2 / RFU, NRIP1 / Fold change vs veh, NRIP1 / RFU, PTTG1IP / Fold change vs veh, PTTG1IP / RFU, CAPN2 / Fold change vs veh, CAPN2 / RFU, MED14 / Fold change vs veh, MED14 / RFU, SNORA58 / Fold change vs veh, SNORA58 / RFU, C1orf63 / Fold change vs veh, C1orf63 / RFU, LRRFIP1 / Fold change vs veh, LRRFIP1 / RFU, NDUFAF7 / Fold change vs veh, NDUFAF7 / RFU, SLC12A2 / Fold change vs veh, SLC12A2 / RFU, IBTK / Fold change vs veh, IBTK / RFU, ESF1 / Fold change vs veh, ESF1 / Fold change vs veh, TMEM50B / RFU, TAOK1 / Fold change vs veh, TAOK1 / RFU, ACBD3 / Fold change vs veh, ACBD3 / RFU, TMA16 / Fold change vs veh, TMA16 / RFU, RWDD3 / Fold change vs veh, RWDD3 / RFU, BCAT1 / Fold change vs veh, BCAT1 / RFU, EDEM3 / Fold change vs veh, EDEM3 / RFU, TMEM33 / Fold change vs veh, TMEM33 / RFU, WDR75 / Fold change vs veh, WDR75 / RFU, AHCTF1 / Fold change vs veh, AHCTF1 / RFU, TFRC / Fold change vs veh, TFRC / RFU, ZDHHC17 / Fold change vs veh, ZDHHC17 / RFU, NOM1 / Fold change vs veh, NOM1 / RFU, ARL8B / Fold change vs veh, ARL8B / RFU, ZBTB11 / Fold change vs veh, ZBTB11 / RFU, TAMM41 / Fold change vs veh, TAMM41 / RFU, KIAA1704 /// LOC100996395 / Fold change vs veh, KIAA1704 /// LOC100996395 / RFU, ING1 / Fold change vs veh, ING1 / RFU, TRMT61B / Fold change vs veh, TRMT61B / RFU, FUBP3 / Fold change vs veh, FUBP3 / RFU, TP53 / Fold change vs veh, TP53 / RFU, TNKS2 / Fold change vs veh, TNKS2 / RFU, ZFP14 / Fold change vs veh, ZFP14 / RFU, ACTR2 / Fold change vs veh, ACTR2 / RFU, PPP3R1 / Fold change vs veh, PPP3R1 / RFU, PIK3R1 / Fold change vs veh, PIK3R1 / RFU, HNRNPA1 / Fold change vs veh, HNRNPA1 / RFU, RNF170 / Fold change vs veh, RNF170 / RFU, ZNF28 / Fold change vs veh, ZNF28 / RFU, RNGTT / Fold change vs veh, RNGTT / RFU, OGT / Fold change vs veh, OGT / RFU, BRD1 / Fold change vs veh, BRD1 / RFU, MARS / Fold change vs veh, MARS / RFU, ZNF655 / Fold change vs veh, ZNF655 / RFU, FAHD1 / Fold change vs veh, FAHD1 / RFU, BDP1 / Fold change vs veh, BDP1 / RFU, LRRCC1 / Fold change vs veh, LRRCC1 / RFU, ARID1A / Fold change vs veh, ARID1A / RFU, ZNF146 / Fold change vs veh, ZNF146 / RFU, ZNF330 / Fold change vs veh, ZNF330 / RFU, GPN3 / Fold change vs veh, GPN3 / RFU, C9orf123 / Fold change vs veh, C9orf123 / RFU, N4BP2L2 / Fold change vs veh, N4BP2L2 / RFU, ARFIP1 / Fold change vs veh, ARFIP1 / RFU, FAM179B / Fold change vs veh, FAM179B / RFU, BCL10 / Fold change vs veh, BCL10 / RFU, UHRF1BP1L / Fold change vs veh, UHRF1BP1L / RFU, BET1 / Fold change vs veh, BET1 / RFU, CNOT2 / Fold change vs veh, CNOT2 / RFU, ZNF268 / Fold change vs veh, ZNF268 / Fold change vs veh, ZNF507 / RFU, DGCR2 / Fold change vs veh, DGCR2 / RFU, WDSUB1 / Fold change vs veh, WDSUB1 / Fold change vs veh, HSP90B1 /// MIR3652 / RFU, ADSS / Fold change vs veh, ADSS / RFU, GK / Fold change vs veh, GK / RFU, ZNF148 / Fold change vs veh, ZNF148 / RFU, TAF9 / Fold change vs veh, TAF9 / RFU, SLC1A5 / Fold change vs veh, SLC1A5 / RFU, SLMO2 / Fold change vs veh, SLMO2 / RFU, ABCC4 / Fold change vs veh, ABCC4 / RFU, LOC101060439 /// RAP1B / Fold change vs veh, LOC101060439 /// RAP1B / RFU, RFX7 / Fold change vs veh, RFX7 / RFU, GTPBP10 / Fold change vs veh, GTPBP10 / RFU, CNEP1R1 / Fold change vs veh, CNEP1R1 / RFU, BIVM-ERCC5 /// ERCC5 / Fold change vs veh, BIVM-ERCC5 /// ERCC5 / RFU, ILF3 / Fold change vs veh, ILF3 / RFU 11762660_at / Fold change /veh 11762660_at / RFU VCAN (11757783_s_at) / Fold change /veh VCAN (11757783_s_at) / RFU DDX43 (11728927_at) / Fold change /veh DDX43 (11728927_at) / RFU KRT8 (11758188_x_at) / Fold change /veh KRT8 (11758188_x_at) / RFU NKD1 (11759106_at) / Fold change /veh NKD1 (11759106_at) / RFU SRD5A1 (11742802_a_at) / Fold change /veh SRD5A1 (11742802_a_at) / RFU TPSAB1 /// TPSB2 (11721975_s_at) / Fold change /veh TPSAB1 /// TPSB2 (11721975_s_at) / RFU GSTM3 (11746129_a_at) / Fold change /veh GSTM3 (11746129_a_at) / RFU IL23R (11737362_x_at) / Fold change /veh IL23R (11737362_x_at) / RFU TMEM51 (11727254_a_at) / Fold change /veh TMEM51 (11727254_a_at) / RFU PIWIL2 (11732686_x_at) / Fold change /veh PIWIL2 (11732686_x_at) / RFU ORM1 (11744905_x_at) / Fold change /veh ORM1 (11744905_x_at) / RFU CCDC152 (11743942_at) / Fold change /veh CCDC152 (11743942_at) / RFU ECM1 (11717891_a_at) / Fold change /veh ECM1 (11717891_a_at) / RFU IL23R (11748794_a_at) / Fold change /veh IL23R (11748794_a_at) / RFU TNFAIP8L3 (11732012_x_at) / Fold change /veh TNFAIP8L3 (11732012_x_at) / RFU MBOAT4 (11741988_at) / Fold change /veh MBOAT4 (11741988_at) / RFU 11764193_at / Fold change /veh 11764193_at / RFU TMEM53 (11763286_at) / Fold change /veh TMEM53 (11763286_at) / RFU MAGEB2 (11727129_at) / Fold change /veh MAGEB2 (11727129_at) / RFU TMEM200A (11744735_a_at) / Fold change /veh TMEM200A (11744735_a_at) / RFU CCDC152 (11751479_a_at) / Fold change /veh CCDC152 (11751479_a_at) / RFU FAM211A (11726209_a_at) / Fold change /veh FAM211A (11726209_a_at) / RFU RGS16 (11746705_a_at) / Fold change /veh RGS16 (11746705_a_at) / RFU VCAN (11755009_s_at) / Fold change /veh VCAN (11755009_s_at) / RFU RHOB (11743442_s_at) / Fold change /veh RHOB (11743442_s_at) / RFU RGS16 (11720943_a_at) / Fold change /veh RGS16 (11720943_a_at) / RFU RGS16 (11720944_at) / Fold change /veh RGS16 (11720944_at) / RFU, VPS4B / Fold change vs veh, VPS4B / RFU, CREB1 / Fold change vs veh, CREB1 / RFU, DNAJC13 / Fold change vs veh, DNAJC13 / RFU, GNAQ / Fold change vs veh, GNAQ / RFU, CDK5R1 / Fold change vs veh, CDK5R1 / RFU, ZRANB3 / Fold change vs veh, ZRANB3 / RFU, CUL4A / Fold change vs veh, CUL4A / RFU, CCNY / Fold change vs veh, CCNY / RFU, UFL1 / Fold change vs veh, UFL1 / RFU, COG3 / Fold change vs veh, COG3 / RFU, DIAPH2 / Fold change vs veh, DIAPH2 / RFU, SKA2 / Fold change vs veh, SKA2 / RFU, AFF3 / Fold change vs veh, AFF3 / RFU, LMF1 / Fold change vs veh, LMF1 / RFU, IPO11 / Fold change vs veh, IPO11 / RFU, DFFB / Fold change vs veh, DFFB / RFU, FOXP1 / Fold change vs veh, FOXP1 / RFU, CARD8 / Fold change vs veh, CARD8 / RFU, STRN3 / Fold change vs veh, STRN3 / RFU, ADK / Fold change vs veh, ADK / RFU, RASSF2 / Fold change vs veh, RASSF2 / RFU, WIPF1 / Fold change vs veh, WIPF1 / RFU, LARP1B / Fold change vs veh, LARP1B / RFU, RASA1 / Fold change vs veh, RASA1 / RFU, RB1 / Fold change vs veh, RB1 / RFU, PPFIA1 / Fold change vs veh, PPFIA1 / RFU, MAT2A / Fold change vs veh, MAT2A / RFU, CCT5 / Fold change vs veh, CCT5 / RFU, WDR92 / Fold change vs veh, WDR92 / RFU, CUX1 / Fold change vs veh, CUX1 / RFU, TTC7A / Fold change vs veh, TTC7A / RFU, TMEM135 / Fold change vs veh, TMEM135 / RFU, DEPTOR / Fold change vs veh, DEPTOR / RFU, CPM / Fold change vs veh, CPM / RFU, DNAJB6 / Fold change vs veh, DNAJB6 / RFU, CACNA2D3 / Fold change vs veh, CACNA2D3 / RFU, DTX4 / Fold change vs veh, DTX4 / RFU, TFCP2 / Fold change vs veh, TFCP2 / RFU, GMCL1 /// GMCL1P1 / Fold change vs veh, GMCL1 /// GMCL1P1 / RFU, AEBP2 / Fold change vs veh, AEBP2 / RFU, SNHG1 /// SNORD22 /// SNORD25 /// SNORD26 /// SNORD27 /// SNORD28 /// SNORD29 /// SNORD31 / Fold change vs veh, SNHG1 /// SNORD22 /// SNORD25 /// SNORD26 /// SNORD27 /// SNORD28 /// SNORD29 /// SNORD31 / Fold change (Aza/veh), C12orf56 (ProbeSet 11735607_a_at) / Fold change (ACY-1035/veh), C12orf56 (ProbeSet 11735607_a_at) / Fold change (Aza/veh), FGFR1OP (ProbeSet 11751329_s_at) / Fold change (ACY-1035/veh), FGFR1OP (ProbeSet 11751329_s_at) / Fold change (Aza/veh), VPS36 (ProbeSet 11739960_a_at) / Fold change (ACY-1035/veh), VPS36 (ProbeSet 11739960_a_at) / RFU SYPL1 (11715823_x_at) / Fold change /veh SYPL1 (11715823_x_at) / RFU IGFBP7 (11715501_s_at) / Fold change /veh IGFBP7 (11715501_s_at) / RFU REEP3 (11722064_at) / Fold change /veh REEP3 (11722064_at) / RFU IGLL1 (11728026_x_at) / Fold change /veh IGLL1 (11728026_x_at): dose or concentration left out as unconfirmed", "conditions": "MV-4-11 cells, 48 hours", "data": [{"compound": "Nc1ccc(-c2cccs2)cc1NC(=O)c1ccc2c(c1)cc(C1CC1)n2CCN1CCOCC1", "note": "[ACY-1035]", "values": [{"measurement": "Fold change /veh C1QL1 (11718748_at)", "result": 0.88}]}]}
